Laboratory results taken from EP0352000A2, “Retroviral protease binding peptides” (SMITHKLINE BECKMAN CORPORATION, priority 1988, dated 1990).
Where a SMILES comes first, the peptide text is derived from it. [ ]: non-standard residue; d: D form. The star is where a group is joined. Sta = CC(C)C[C@H](N)[C@@H](O)CC(=O)O; Isovaleryl = CC(C)CC(=O)*

Legend:
[1] = system: retroviral proteases associated with bovine leukemia virus; settings: cited from earlier work
[2] = biological target: retroviral proteases associated with Moloney murine leukemia virus (Moloney murine leukemia virus, UniProt P03355); settings: cited from earlier work
[3] = biological target: retroviral proteases associated with human T-cell leukemia virus (Human T-cell leukemia virus 1, UniProt P10274); settings: cited from earlier work
HIV protease = settings: substrate of HIV protease; MENDT buffer pH 6.0, 37°C
Method: The enzyme used to assay the peptide of this invention was produced in this manner and purified from the cell pellet as follows. The E. coli cell pellet was resuspended in a buffer consisting of 50 mM Tris-­HCl, pH 7.5; 1.0 mM each DTT, EDTA and PMSF (phenylmethylsulfonyl fluoride). The cells were lysed by sonication and insoluble material was removed by centrifugation at 15,000 x g av, for 15 min. The clarified supernatant was then brought to 40% of saturation with ammonium sulfate This suspension was stirred at room temperature for 30 min. and then centrifuged as above. […] The effluent of the column was monitored at 280 nm and 1 min. fractions collected.
Initial rate data for oligopeptides were determined at pH 6.0, 37°C. […] Samples were centrifuged at 17,000 rpm for 5 min., and the peptide substrates and products were separated and quantified (by peak integration) by reverse phase HPLC. Initial rates were determined as (mM peptide product formed)/min based on the percentage of conversion of substrate to product for a given concentration of substrate. […] Kinetic constants (Michaelis constants, maximal velocities) were determined by fitting initial rate data to the Michaelis-Menten equation (v = Vmax(S)/(Km + (S))) using the Fortran program of Cleland (W. W. Cleland, Adv. Enzymol. 29, 1, (1967)). […]

retroviral proteases associated with human T-cell leukemia virus, sequence (P10274 450-574): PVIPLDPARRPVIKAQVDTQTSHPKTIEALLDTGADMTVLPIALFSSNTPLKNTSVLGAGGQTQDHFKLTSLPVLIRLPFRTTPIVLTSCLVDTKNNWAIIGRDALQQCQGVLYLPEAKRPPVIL
retroviral proteases associated with Moloney murine leukemia virus, sequence (P03355 535-659): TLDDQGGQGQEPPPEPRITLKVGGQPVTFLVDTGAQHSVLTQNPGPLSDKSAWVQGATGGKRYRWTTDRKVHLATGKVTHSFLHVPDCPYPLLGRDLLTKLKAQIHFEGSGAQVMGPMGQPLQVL

**Q.** What does the source list for `CC(C)CC(=O)N[C@H](C(=O)N[C@H](C(=O)N[C@@H](CC(C)C)[C@@H](O)CC(=O)N[C@@H](C)C(=O)N[C@@H](CC(C)C)[C@@H](O)CC(=O)O)C(C)C)C(C)C` [pepstatin] (Isovaleryl-VV[Sta]A[Sta]-OH)?
**A.** inhibitor of the retroviral protease [1]: weak inhibitor; inhibitor of the retroviral protease [2]: weak inhibitor; inhibitor of the retroviral protease [3]: weak inhibitor

**Q.** For “N-acetyl-L-arginyl-L-alanyl-L-seryl-L-glutaminyl-L-asparaginyl-L-tyrosyl-L-prolyl-L-valyl-L-valinamide”, which Km (HIV protease) is on record?
**A.** 7 mM
